Assays:
CCD-966SK = test: MTT cell proliferation assay, CCD-966SK; settings: CCD966SK skin fibroblast; 10 µM; 72 h MTT
Method: In the MTT assay, 96-well culture plates were used. A total of 7 × 10^4 cells per well were seeded, and test materials were added to the cells at various concentrations [47, 48]. Human cancer and non-cancer cell lines were purchased commercially from the American Type Culture Collection (ATCC). After 72 h, the cytotoxicity of the compounds and paclitaxel (as a positive control group) was detected using the MTT method (thiazolyl blue tetrazolium bromide, Sigma-M2128). Absorbance values at 570 and 620 nm (OD = OD570–OD620) were measured using an ELISA reader (Anthos Labtec Instruments, Salzburg, Austria).

CCRF-CEM = test: NCI-60 one-dose screen; format: cell-based; settings: Homo sapiens, Leukemia panel, single dose 10^−5 M, read-out: Growth inhibition %
NCI-H322M = test: NCI-60 one-dose screen; format: cell-based; settings: Homo sapiens, Non-small cell lung panel, single dose 10^−5 M, read-out: Growth inhibition %
Method: (§1) The newly synthesized compounds were screened for their in vitro anticancer activity at the Developmental Therapeutic Program (DTP) of the National Cancer Institute (NCI). The screening involved a panel of 60 human tumor cell lines consisting of 9 tissue types to screen for potential anti-cancer agents. The primary screening of submitted compounds was performed by testing a single dose (10^−5 M) in the full NCI-60 panel. The detailed % inhibition by the tested compounds against the 60 cell lines is shown in Tables S1–S3 in the Supporting Information.

SNB-19 = test: NCI-60 one-dose screen; format: cell-based; settings: Homo sapiens; SNB-19, CNS Cancer panel; single dose 10^−5 M; read-out: Growth inhibition %
Method: as §1

HT29 = test: NCI-60 one-dose screen; format: cell-based; settings: Homo sapiens, HT-29; HT29, Colon Cancer panel; single dose 10^−5 M; read-out: Growth inhibition %
Method: as §1

SNB-75 = test: NCI-60 one-dose screen; format: cell-based; settings: Homo sapiens; SNB-75, CNS Cancer panel; single dose 10^−5 M; read-out: Growth inhibition %
Method: as §1

SF-539 = test: NCI-60 one-dose screen; format: cell-based; settings: Homo sapiens; SF-539, CNS Cancer panel; single dose 10^−5 M; read-out: Growth inhibition %
Method: as §1

SK-MEL-28 = test: NCI-60 one-dose screen; format: cell-based; settings: Homo sapiens; SK-MEL-28, Melanoma panel; single dose 10^−5 M; read-out: Growth inhibition %
Method: as §1

U251 = test: NCI-60 one-dose screen; format: cell-based; settings: Homo sapiens, U-251; U251, CNS Cancer panel; single dose 10^−5 M; read-out: Growth inhibition %
Method: as §1

MDA-MB-231/ATCC = test: NCI-60 one-dose screen; format: cell-based; settings: Homo sapiens, Breast Cancer panel, single dose 10^−5 M, read-out: Growth inhibition %
Method: as §1

K-562 = test: NCI-60 one-dose screen; format: cell-based; settings: Homo sapiens, K562; K-562, Leukemia panel; single dose 10^−5 M; read-out: Growth inhibition %
Method: as §1

RPMI-8226 = test: NCI-60 one-dose screen; format: cell-based; settings: Homo sapiens; RPMI-8226, Leukemia panel; single dose 10^−5 M; read-out: Growth inhibition %
Method: as §1

KM12 = test: NCI-60 one-dose screen; format: cell-based; settings: Homo sapiens; KM12, Colon Cancer panel; single dose 10^−5 M; read-out: Growth inhibition %
Method: as §1

PC-3 = test: NCI-60 one-dose screen; format: cell-based; settings: Homo sapiens; PC-3, Prostate Cancer panel; single dose 10^−5 M; read-out: Growth inhibition %
Method: as §1

SK-OV-3 = test: NCI-60 one-dose screen; format: cell-based; settings: Homo sapiens; SK-OV-3, Ovarian Cancer panel; single dose 10^−5 M; read-out: Growth inhibition %
Method: as §1

NCI-H226 = test: NCI-60 one-dose screen; format: cell-based; settings: Homo sapiens; NCI-H226, Non-small cell lung panel; single dose 10^−5 M; read-out: Growth inhibition %
Method: as §1

MDA-MB-468 = test: NCI-60 one-dose screen; format: cell-based; settings: Homo sapiens; MDA-MB-468, Breast Cancer panel; single dose 10^−5 M; read-out: Growth inhibition %
Method: as §1

BT-549 = test: NCI-60 one-dose screen; format: cell-based; settings: Homo sapiens; BT-549, Breast Cancer panel; single dose 10^−5 M; read-out: Growth inhibition %
Method: as §1

SK-MEL-2 = test: NCI-60 one-dose screen; format: cell-based; settings: Homo sapiens; SK-MEL-2, Melanoma panel; single dose 10^−5 M; read-out: Growth inhibition %
Method: as §1

ACHN = test: NCI-60 one-dose screen; format: cell-based; settings: Homo sapiens, Renal Cancer panel, single dose 10^−5 M, read-out: Growth inhibition %
Method: as §1

DU-145 = test: NCI-60 one-dose screen; format: cell-based; settings: Homo sapiens; DU-145, Prostate Cancer panel; single dose 10^−5 M; read-out: Growth inhibition %
Method: as §1

NCI-H460 = test: NCI-60 one-dose screen; format: cell-based; settings: Homo sapiens; NCI-H460, Non-small cell lung panel; single dose 10^−5 M; read-out: Growth inhibition %
Method: as §1

RXF 393 = test: NCI-60 one-dose screen; format: cell-based; settings: Homo sapiens; RXF 393, Renal Cancer panel; single dose 10^−5 M; read-out: Growth inhibition %
Method: as §1

SW-620 = test: NCI-60 one-dose screen; format: cell-based; settings: Homo sapiens; SW-620, Colon Cancer panel; single dose 10^−5 M; read-out: Growth inhibition %
Method: as §1

LOX IMVI = test: NCI-60 one-dose screen; format: cell-based; settings: Homo sapiens, Melanoma panel, single dose 10^−5 M, read-out: Growth inhibition %
PDE5A = molecular target: T1, PDE5A (Homo sapiens, UniProt O76074); test: Phosphodiesterase 5 HTRF cGMP assay; format: biochemical; settings: for IC50: means ± S.D. (n = 4), read-out: PDE5 IC50; for inhibition at 10 µM: read-out: PDE5 % Inhibition at 10 μM
T1 construct: purchased BPS Bioscience, San Diego, CA, USA
Method: All the synthesized acridine derivatives were tested for their in vitro ability to inhibit PDE5A at a screening dose of 10 µM.
The enzyme activities of phosphodiesterase 5 (PDE5) were measured using an HTRF cGMP assay kit (Cisbio, Codolet, France). […] Afterward, the HTRF reagent (cGMP-d2 and anti-cGMP-cryptate) was added for 1 h at 25 °C, and PDE activity was assayed on an HTRF reader (Tecan Infinite F200 Pro).

[1] = test system: panel of 60 human tumor cell lines; test: NCI 60-cell line one-dose screen (mean); format: cell-based; settings: mean of the 60 cell lines, single dose 10^−5 M, read-out: Mean % Growth Inhibition
Method: as §1

IGROV1 = test: NCI-60 one-dose screen; format: cell-based; settings: Homo sapiens, IGROV-1; IGROV1, Ovarian Cancer panel; single dose 10^−5 M; read-out: Growth inhibition %

Structure (SMILES) | % Inhibition at 10 µM (CCD-966SK) [%] | inhibition at 10 µM (CCRF-CEM) [%] | inhibition at 10 µM (NCI-H322M) [%] | inhibition at 10 µM (SNB-19) [%] | inhibition at 10 µM (HT29) [%] | inhibition at 10 µM (SNB-75) [%] | inhibition at 10 µM (SF-539) [%] | inhibition at 10 µM (SK-MEL-28) [%] | inhibition at 10 µM (U251) [%] | inhibition at 10 µM (MDA-MB-231/ATCC) [%] | inhibition at 10 µM (K-562) [%] | inhibition at 10 µM (RPMI-8226) [%] | inhibition at 10 µM (KM12) [%] | inhibition at 10 µM (PC-3) [%] | inhibition at 10 µM (SK-OV-3) [%] | inhibition at 10 µM (NCI-H226) [%] | inhibition at 10 µM (MDA-MB-468) [%] | inhibition at 10 µM (BT-549) [%] | inhibition at 10 µM (SK-MEL-2) [%] | inhibition at 10 µM (ACHN) [%] | other results
Clc1ccccc1CNc1c2ccccc2nc2ccccc12 [Compound 11, Acridin-9-yl-(2-chlorobenzyl)-amine] | 36.77 ± 3.49 | 89.3 | 73 | 74.2 | 94.5 | 56.9 | 93.8 | 49.5 | 76.8 | 71 | 94.7 | 127 | 78 | 82.9 | 45.1 | 61.1 | 128 | 61.9 | 44.4 | 87.8 | inhibition at 10 µM (DU-145): 68.2%; inhibition at 10 µM (NCI-H460): 91.2%; inhibition at 10 µM (RXF 393): 85%; inhibition at 10 µM (SW-620): 90.4%; inhibition at 10 µM (LOX IMVI): 95.2%; IC50 (PDE5A): 4.33 ± 2.35 µM; inhibition at 10 µM (PDE5A): 87.3 ± 3.68%; inhibition at 10 µM [1]: 78.4%; inhibition at 10 µM (IGROV1): 82.2%
Clc1cccc(CNc2c3ccccc3nc3ccccc23)c1 [Compound 12, Acridin-9-yl-(3-chlorobenzyl)-amine] | 45.43 ± 0.42 | 81.9 | 68.7 | 73.6 | 91.4 | 31.3 | 90.7 | 33.8 | 77.3 | 70.6 | 95 | 124 | 59.2 | 76.5 | 36.1 | 52 | 118 | 40.9 | 22.7 | 84.3 | inhibition at 10 µM (DU-145): 68.3%; inhibition at 10 µM (NCI-H460): 85.8%; inhibition at 10 µM (RXF 393): 81%; inhibition at 10 µM (SW-620): 88%; inhibition at 10 µM (LOX IMVI): 98.2%; IC50 (PDE5A): 6.29 ± 1.18 µM; inhibition at 10 µM (PDE5A): 62.2 ± 4.94%; inhibition at 10 µM [1]: 73%; inhibition at 10 µM (IGROV1): 83.5%
